Data on 18 compounds can be found in patent US20240051985A1, “METTL3 MODULATORS” (ACCENT THERAPEUTICS, INC., priority 2020, published 2024).

Assay [1] addresses T1, FLT3-ITD (Homo sapiens, UniProt P36888).
T1 sequence (P36888 1-993): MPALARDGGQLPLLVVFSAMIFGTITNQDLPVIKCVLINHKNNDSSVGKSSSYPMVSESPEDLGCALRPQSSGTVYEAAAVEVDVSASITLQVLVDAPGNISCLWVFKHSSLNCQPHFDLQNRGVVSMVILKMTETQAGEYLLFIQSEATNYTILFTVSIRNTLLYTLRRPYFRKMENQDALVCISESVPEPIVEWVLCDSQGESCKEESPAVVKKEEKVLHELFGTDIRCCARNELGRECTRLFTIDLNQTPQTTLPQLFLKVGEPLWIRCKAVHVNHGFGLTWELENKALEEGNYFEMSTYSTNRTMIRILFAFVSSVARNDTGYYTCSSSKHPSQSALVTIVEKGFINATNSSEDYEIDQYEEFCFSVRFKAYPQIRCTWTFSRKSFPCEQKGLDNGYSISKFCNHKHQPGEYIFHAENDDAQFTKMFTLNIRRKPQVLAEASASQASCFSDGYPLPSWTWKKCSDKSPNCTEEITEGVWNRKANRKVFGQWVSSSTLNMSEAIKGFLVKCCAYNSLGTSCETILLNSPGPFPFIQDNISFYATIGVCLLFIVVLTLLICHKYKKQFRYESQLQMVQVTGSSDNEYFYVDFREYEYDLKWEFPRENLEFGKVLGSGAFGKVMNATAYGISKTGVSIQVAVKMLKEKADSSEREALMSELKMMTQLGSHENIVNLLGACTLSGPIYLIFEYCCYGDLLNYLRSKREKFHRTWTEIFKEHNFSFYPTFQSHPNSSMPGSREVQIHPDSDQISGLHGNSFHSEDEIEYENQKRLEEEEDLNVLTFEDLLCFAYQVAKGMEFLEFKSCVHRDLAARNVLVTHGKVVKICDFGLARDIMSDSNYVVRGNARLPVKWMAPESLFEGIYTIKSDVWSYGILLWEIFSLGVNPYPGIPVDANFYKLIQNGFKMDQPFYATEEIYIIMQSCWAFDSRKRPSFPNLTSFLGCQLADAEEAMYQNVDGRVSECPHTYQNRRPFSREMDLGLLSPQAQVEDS
Put plainly: FLT3-ITD Caliper assay. In kind it is biochemical. Conditions: Table 4; read-out: FLT3-ITD Calipher assay IC50. The procedure: (§1) FLT3/FLT3-ITD Caliper Assays
(§2) Assays were performed in a 20 μl-volume in 384-well polypropylene microplates (Perkin Elmer Proxiplate, cat. No. 6059480) at ambient temperature. Optimized 1× assay buffer was 50 mM Hepes pH 7.5, 2 mM DTT, 0.01% Tween, 0.01% BSA, 10 mM MgCl2. For compound screening FLT3 (final concentration, f.c.=0.9 nM) or FLT3-ITD (f.c.=7 nM) was added using a Multidrop Combi (ThermoFisher Scientific, Waltham, MA) and preincubated for 10 min. Reactions were started by adding fluorescein-peptide (sequence 5-FAM-EAIYAAPFAKKK-CONH2) (f.c.=300 μM) and ATP (FLT3 f.c.=97 μM FLT3-ITD f.c.=146 μM) substrates. Reactions proceeded for 60 minutes. The reactions were stopped with LabChip ProfilerPro Separation Buffer containing EDTA (f.c.=20 mM). The plates were read on a Caliper microfluidics reader (PerkinElmer, Waltham, MA).

Assay [2] deals with METTL3/METTL14 (Homo sapiens, UniProt Q86U44). Put plainly: METTL3-14 standard enzyme assay (3H-SAM flashplate). The following applies: Table 4; METTL3 biochemical assay. An outline of the steps:
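METTL3/METTL14 (2.5 nM) preincubated 5 min, then reacted with 3′-biotinylated RNA UCUGGACUAAA (100 nM) and 3H-SAM (100 nM) for 30 min at ambient temperature in 20 mM HEPES pH 7.5, 50 mM KCl, 250 μM MgCl2, 1 mM DTT. Quenched with 15 μM cold SAM; product captured on streptavidin flashplates, scintillation counted.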

Assay [3] deals with PRMT5-MEP50 (Homo sapiens, UniProt O14744). In words: PRMT5 assay (3H-SAM flashplate). Conditions: Table 4; PRMT5 biochemical assay. An outline of the steps:
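PRMT5-MEP50 at 2.5 nM, preincubated 5 min with compound in 20 mM Tris-HCl pH 8.0, 1 mM DTT, 0.01% Tween at ambient temperature. Biotinylated acetylated histone H4 peptide (100 nM) and 3H-SAM (250 nM) react 60 min, quenched with 15 μM cold SAM; methylation captured on streptavidin flashplates and scintillation-counted.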

The target of assay [4] is T2, FLT3 (Homo sapiens, UniProt P36888).
T2 sequence (P36888 27-993): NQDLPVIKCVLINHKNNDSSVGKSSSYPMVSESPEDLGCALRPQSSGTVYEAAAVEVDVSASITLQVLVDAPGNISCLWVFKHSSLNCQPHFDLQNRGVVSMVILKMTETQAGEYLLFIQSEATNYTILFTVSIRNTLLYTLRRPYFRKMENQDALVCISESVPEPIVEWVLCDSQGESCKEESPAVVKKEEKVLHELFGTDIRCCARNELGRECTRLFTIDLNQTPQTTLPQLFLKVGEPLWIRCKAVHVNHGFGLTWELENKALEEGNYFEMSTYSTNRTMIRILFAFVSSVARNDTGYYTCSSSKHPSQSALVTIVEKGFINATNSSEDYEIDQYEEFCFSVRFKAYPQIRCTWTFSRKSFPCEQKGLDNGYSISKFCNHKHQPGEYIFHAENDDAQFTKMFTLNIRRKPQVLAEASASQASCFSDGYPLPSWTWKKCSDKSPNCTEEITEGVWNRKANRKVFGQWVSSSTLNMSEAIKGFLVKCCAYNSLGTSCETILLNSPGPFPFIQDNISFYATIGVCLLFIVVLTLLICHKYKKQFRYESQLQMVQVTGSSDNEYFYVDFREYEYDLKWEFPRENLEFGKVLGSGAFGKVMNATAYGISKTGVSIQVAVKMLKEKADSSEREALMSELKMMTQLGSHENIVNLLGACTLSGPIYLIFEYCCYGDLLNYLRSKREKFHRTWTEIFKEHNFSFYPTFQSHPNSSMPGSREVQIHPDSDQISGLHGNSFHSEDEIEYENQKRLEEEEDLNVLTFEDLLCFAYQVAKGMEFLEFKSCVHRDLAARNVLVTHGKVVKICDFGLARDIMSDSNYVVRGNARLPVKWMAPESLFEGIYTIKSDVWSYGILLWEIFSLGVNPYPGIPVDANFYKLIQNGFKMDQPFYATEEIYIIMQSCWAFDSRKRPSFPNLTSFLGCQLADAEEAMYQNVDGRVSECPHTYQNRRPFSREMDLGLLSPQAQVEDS
In words: FLT3 Caliper assay. In kind it is biochemical. The following applies: Table 4; read-out: FLT3 Calipher assay IC50. The procedure: as §1, §2

Chain of PRMT5-MEP50 (O14744 whole entry): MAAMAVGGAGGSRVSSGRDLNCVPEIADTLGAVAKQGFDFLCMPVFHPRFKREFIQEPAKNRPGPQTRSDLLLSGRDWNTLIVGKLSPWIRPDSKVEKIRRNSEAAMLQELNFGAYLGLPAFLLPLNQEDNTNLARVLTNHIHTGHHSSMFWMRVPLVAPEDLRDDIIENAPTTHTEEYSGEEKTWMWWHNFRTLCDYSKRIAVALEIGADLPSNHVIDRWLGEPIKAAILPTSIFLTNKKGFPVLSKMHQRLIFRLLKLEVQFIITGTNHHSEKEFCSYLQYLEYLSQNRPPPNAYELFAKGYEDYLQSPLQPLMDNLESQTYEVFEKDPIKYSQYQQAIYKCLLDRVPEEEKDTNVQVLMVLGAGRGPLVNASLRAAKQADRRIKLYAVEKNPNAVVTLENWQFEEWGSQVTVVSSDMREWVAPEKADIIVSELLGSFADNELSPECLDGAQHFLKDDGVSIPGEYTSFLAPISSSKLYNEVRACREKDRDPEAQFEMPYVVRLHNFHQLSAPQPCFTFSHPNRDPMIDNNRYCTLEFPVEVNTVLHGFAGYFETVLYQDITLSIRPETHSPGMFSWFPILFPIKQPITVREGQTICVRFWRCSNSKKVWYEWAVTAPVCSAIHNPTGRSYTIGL
Chain of PRMT5-MEP50 (Q9BQA1 whole entry partner): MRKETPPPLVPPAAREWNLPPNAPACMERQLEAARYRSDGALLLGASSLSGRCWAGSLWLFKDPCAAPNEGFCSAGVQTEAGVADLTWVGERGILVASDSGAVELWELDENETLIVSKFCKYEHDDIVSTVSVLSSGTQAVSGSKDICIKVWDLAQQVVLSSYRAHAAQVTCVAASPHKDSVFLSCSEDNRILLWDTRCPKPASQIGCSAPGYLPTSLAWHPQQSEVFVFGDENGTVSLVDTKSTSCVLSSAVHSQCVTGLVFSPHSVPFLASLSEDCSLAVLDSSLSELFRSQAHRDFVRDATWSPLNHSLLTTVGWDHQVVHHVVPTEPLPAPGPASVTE
Chain of METTL3/METTL14 (Q86U44 whole entry, species assumed): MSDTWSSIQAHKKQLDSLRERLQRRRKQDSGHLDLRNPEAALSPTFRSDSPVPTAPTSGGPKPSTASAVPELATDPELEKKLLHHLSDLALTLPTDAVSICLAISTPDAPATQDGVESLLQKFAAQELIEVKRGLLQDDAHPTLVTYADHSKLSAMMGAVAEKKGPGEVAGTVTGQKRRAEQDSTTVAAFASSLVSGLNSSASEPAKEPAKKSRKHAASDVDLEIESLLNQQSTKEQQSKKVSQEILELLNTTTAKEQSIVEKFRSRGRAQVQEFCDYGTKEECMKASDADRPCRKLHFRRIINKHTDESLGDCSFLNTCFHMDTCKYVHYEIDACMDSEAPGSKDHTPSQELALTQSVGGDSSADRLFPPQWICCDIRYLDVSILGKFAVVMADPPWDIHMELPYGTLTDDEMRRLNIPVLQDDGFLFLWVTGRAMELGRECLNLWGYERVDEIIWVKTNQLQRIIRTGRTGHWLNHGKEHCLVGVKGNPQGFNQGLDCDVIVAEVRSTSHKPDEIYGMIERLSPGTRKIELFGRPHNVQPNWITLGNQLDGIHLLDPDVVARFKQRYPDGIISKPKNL
Chain of METTL3/METTL14 (Q9HCE5 whole entry partner, species assumed): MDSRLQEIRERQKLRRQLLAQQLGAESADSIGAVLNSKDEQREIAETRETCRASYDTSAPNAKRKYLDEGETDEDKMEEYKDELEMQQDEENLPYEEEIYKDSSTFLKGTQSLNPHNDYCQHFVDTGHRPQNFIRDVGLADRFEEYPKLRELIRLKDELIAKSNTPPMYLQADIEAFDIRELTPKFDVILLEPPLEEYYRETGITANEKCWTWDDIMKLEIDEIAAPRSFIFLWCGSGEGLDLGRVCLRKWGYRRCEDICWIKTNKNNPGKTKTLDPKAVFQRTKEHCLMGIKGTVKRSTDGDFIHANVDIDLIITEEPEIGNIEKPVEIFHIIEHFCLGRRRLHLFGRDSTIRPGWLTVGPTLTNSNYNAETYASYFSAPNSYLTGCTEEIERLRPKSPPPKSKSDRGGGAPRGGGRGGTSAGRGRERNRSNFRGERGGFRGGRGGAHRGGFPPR

On to `N#Cc1cn([C@@H]2O[C@H](C(=O)Nc3ccc4ccc(N5CCC5)nc4c3)[C@@H](O)[C@H]2O)c2ncnc(N)c12` [Compound I-52, (2S,3S,4R,5R)-5-{4-amino-5-cyano-7H-pyrrolo[2,3-d]pyrimidin-7-yl}-N-[2-(azetidin-1-yl)quinolin-7-yl]-3,4-dihydroxyoxolane-2-carboxamide], for which the IC50 in assay [1] fell in the range of 100 to 1000 nM; in assay [2], 10 to 100 nM; in assay [3] it was 100 to 1000 nM; in assay [4], 100 to 1000 nM.

On to `Cn1ccc(-c2cn([C@@H]3O[C@H](C(=O)NCC#N)[C@@H](O)[C@H]3O)c3ncnc(N)c23)n1` [Compound I-229], for which the IC50 in assay [1], in assay [2], in assay [3] and in assay [4] was not below 1000 nM in each case.

On to `Cn1ccc(-c2cn([C@@H]3O[C@H](C(=O)NC4CCc5nc(N)sc5C4)[C@@H](O)[C@H]3O)c3ncnc(N)c23)n1` (stereo in doubt) [Compound I-161], for which the IC50 in assay [1] is not below 1000 nM; in assay [2] it was 100 to 1000 nM; in assay [3], 100 to 1000 nM; in assay [4], not below 1000 nM.

Regarding `COc1cccc(CNC(=O)[C@H]2O[C@@H](n3cc(-c4ccn(C)n4)c4c(N)ncnc43)[C@H](O)[C@@H]2O)c1` [Compound I-40], the concentration for half-maximal inhibition (IC50) is not below 1000 nM in assay [1], 100 to 1000 nM in assay [2], 100 to 1000 nM in assay [3] and not below 1000 nM in assay [4].

On to `CNc1nc2ccc(NC(=O)[C@H]3O[C@@H](n4cc(-c5ccn(C)n5)c5c(N)ncnc54)[C@H](O)[C@@H]3O)cc2[nH]1` [Compound I-142], for which the concentration for half-maximal inhibition (IC50) was not below 1000 nM in assay [1], less than 10 nM in assay [2], less than 10 nM in assay [3] and not below 1000 nM in assay [4].

With `CNc1cccc(CCNC(=O)[C@H]2O[C@@H](n3cc(-c4ccn(C)n4)c4c(N)ncnc43)[C@H](O)[C@@H]2O)n1` [Compound I-193], the IC50 in assay [1] was not below 1000 nM; in assay [2], 100 to 1000 nM; in assay [3], not below 1000 nM; in assay [4], not below 1000 nM.

For `Cn1ccc(-c2cn([C@@H]3O[C@H](C(=O)Nc4ccccc4)[C@@H](O)[C@H]3O)c3ncnc(N)c23)n1` [Compound I-173], the IC50 was not below 1000 nM in assay [1], 100 to 1000 nM in assay [2] and not below 1000 nM in assay [4].

With `Cn1ccc(-c2cn([C@@H]3O[C@H](C(=O)Nc4ccnc(NC5CCC5)c4)[C@@H](O)[C@H]3O)c3ncnc(N)c23)n1` [Compound I-167], the IC50 in assay [1] is not below 1000 nM; in assay [2], 100 to 1000 nM; in assay [3], 100 to 1000 nM; in assay [4], not below 1000 nM.

Regarding `Cn1ccc(-c2cn([C@@H]3O[C@H](C(=O)Nc4ccon4)[C@@H](O)[C@H]3O)c3ncnc(N)c23)n1` [Compound I-171], the 50% inhibitory concentration (IC50) in assay [1], in assay [2], in assay [3] and in assay [4] was not below 1000 nM throughout.

In the case of `Cc1ccnc(NC(=O)[C@H]2O[C@@H](n3cc(-c4ccn(C)n4)c4c(N)ncnc43)[C@H](O)[C@@H]2O)c1` [Compound I-172], the IC50 in assay [1], in assay [2], in assay [3] and in assay [4] was not below 1000 nM each time.

For `Cn1ccc(-c2cn([C@@H]3O[C@H](C(=O)N4CCNC(=O)C4)[C@@H](O)[C@H]3O)c3ncnc(N)c23)n1` [Compound I-204], the IC50 in assay [1], in assay [2], in assay [3] and in assay [4] was not below 1000 nM in each case.

As for `Cn1ccc(-c2cn([C@@H]3O[C@H](C(=O)Nc4cc(NCC5CC5)ccn4)[C@@H](O)[C@H]3O)c3ncnc(N)c23)n1` [Compound I-163], the half-maximal inhibitory concentration (IC50) is not below 1000 nM in assay [1], 100 to 1000 nM in assay [2], 10 to 100 nM in assay [3] and not below 1000 nM in assay [4].

Turning to `COc1cccc(NC(=O)[C@H]2O[C@@H](n3cc(-c4ccn(C)n4)c4c(N)ncnc43)[C@H](O)[C@@H]2O)c1` [Compound I-157], the IC50 is not below 1000 nM in assay [1], not below 1000 nM in assay [2], 100 to 1000 nM in assay [3] and not below 1000 nM in assay [4].

As for `Cn1ccc(-c2cn([C@@H]3O[C@H](C(=O)NC4CCNC(=O)C4)[C@@H](O)[C@H]3O)c3ncnc(N)c23)n1` (some centres unmarked) [Compound I-175], the half-maximal inhibitory concentration (IC50) in assay [1], in assay [2], in assay [3] and in assay [4] was not below 1000 nM in each case.

Take `Cn1ccc(-c2cn([C@@H]3O[C@H](C(=O)NN4CCCCC4)[C@@H](O)[C@H]3O)c3ncnc(N)c23)n1` [Compound I-199]: the IC50 is not below 1000 nM in assay [1], not below 1000 nM in assay [2], 100 to 1000 nM in assay [3] and not below 1000 nM in assay [4].

Take `Cn1ccc(-c2cn([C@@H]3O[C@H](C(=O)NC4CCOCC4)[C@@H](O)[C@H]3O)c3ncnc(N)c23)n1` [Compound I-182]: the IC50 in assay [1] is not below 1000 nM; in assay [2], not below 1000 nM; in assay [3], 100 to 1000 nM; in assay [4] it was not below 1000 nM.

On to `CN(C)c1ccnc(NC(=O)[C@H]2O[C@@H](n3cc(-c4ccn(C)n4)c4c(N)ncnc43)[C@H](O)[C@@H]2O)c1` [Compound I-166], for which the concentration for half-maximal inhibition (IC50) was not below 1000 nM in assay [1], 100 to 1000 nM in assay [2], 10 to 100 nM in assay [3] and not below 1000 nM in assay [4].

As to `Cn1ccc(-c2cn([C@@H]3O[C@H](C(=O)NCCc4c[nH]cn4)[C@@H](O)[C@H]3O)c3ncnc(N)c23)n1` [Compound I-228], the IC50 in assay [1] is not below 1000 nM; in assay [2], 100 to 1000 nM; in assay [3], 100 to 1000 nM; in assay [4], not below 1000 nM.
